For data set [1], the target named is Ceramide glucosyltransferase (Homo sapiens, UniProt Q16739). The experiment in a line: Inhibition of GCS in GBA mutant human fibroblasts assessed as reduction in glucosylceramide level incubated for 4 days by RapdiFire-MS/MS analysis. It is filed as cell-based. Particulars: fibroblast.
The nature of data set [2]: Ratio of unbound drug concentration in brain to plasma of non-fasted ICR mouse at 30 mg/kg, po measured after 1 hr by LC-MS/MS analysis. Particulars: read-out: K(p,uu,brain). In kind it is ADME, organism-based.
Data set [3] in a line: Intrinsic clearance in human liver microsomes at 1 uM in presence of NADPH generating system assessed per mg protein by LC-MS/MS analysis. In kind it is ADME, Microsome. Particulars: read-out: CLH.
Data set [4] can be described thus: Toxicity in Sprague-Dawley rat assessed as change in body weight at 30 to 300 mg/kg, po administered once daily for 3 days. It is filed as organism-based. Particulars: in vivo, 72 h, dose 30-300 mg/kg, time 3 day.
The subject of data set [5] is Mus musculus. The experiment in a line: In vivo inhibition of GCS activity in po dosed C57BL/6J mouse assessed as reduction in GlcCer level in plasma measured after 6 hrs. It is filed as functional, organism-based. Particulars: dose 30-300 mg/kg.
In another data set the target is T1, CYP2C8 (Homo sapiens, UniProt P10632).
T1 sequence (P10632 whole entry): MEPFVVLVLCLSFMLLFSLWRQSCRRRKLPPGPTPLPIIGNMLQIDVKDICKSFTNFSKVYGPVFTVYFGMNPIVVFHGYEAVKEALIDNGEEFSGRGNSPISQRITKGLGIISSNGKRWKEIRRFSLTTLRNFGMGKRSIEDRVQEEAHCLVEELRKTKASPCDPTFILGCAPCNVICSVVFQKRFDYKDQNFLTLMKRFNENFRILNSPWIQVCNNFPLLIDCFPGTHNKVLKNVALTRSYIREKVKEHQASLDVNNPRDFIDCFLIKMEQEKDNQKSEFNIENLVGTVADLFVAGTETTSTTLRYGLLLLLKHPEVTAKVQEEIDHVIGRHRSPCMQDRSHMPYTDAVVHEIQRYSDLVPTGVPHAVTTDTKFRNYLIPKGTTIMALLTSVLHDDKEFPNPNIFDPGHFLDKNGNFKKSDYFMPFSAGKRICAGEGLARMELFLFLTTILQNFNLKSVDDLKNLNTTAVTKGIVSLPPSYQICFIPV
The experiment in a line: Inhibition of CYP2C8 in human liver microsomes using paclitaxel as substrate at 10 uM in presence of NADPH generating system incubated for 10 mins. In kind it is ADME. Conditions: probe paclitaxel. On the technique in general: Microsomes from liver hold many membrane-bound enzymes, among them those of drug oxidation.

The nature of data set [6]: Cardiotoxicity in human iPSC-derived cardiomyocytes assessed as induction of proarrhythmic activity at 10 uM by Fluo-4 dye based fluorescence analysis. It is filed as toxicity. Particulars: cardiac muscle cell.
Data set [7] has as its system Mus musculus. The experiment in a line: In vivo inhibition of GCS activity in po dosed C57BL/6J mouse assessed as reduction in GlcCer level in cerebral cortex measured after 6 hrs. It is filed as functional, organism-based. Conditions: dose 30-300 mg/kg.
Data set [8] is described as follows: Fraction unbound in brain of non-fasted ICR mouse at 30 mg/kg, po measured after 1 hr by LC-MS/MS analysis. It is filed as ADME, organism-based.
A further data set concerns the target Cav1.2 (Homo sapiens, UniProt Q13936). Kind of data set: Inhibition of human Cav1.2 expressed in HEK293 cells at 30 uM by automated electrophysiology QPatch HT assay. In kind it is toxicity, cell-based. Particulars: HEK293 cells expressing Cav1.2. A general note: Patch clamp records ionic current or voltage across a cell membrane.
Data set [9] has as its target T2, Ceramide glucosyltransferase (Mus musculus, UniProt O88693).
T2 sequence (O88693 whole entry): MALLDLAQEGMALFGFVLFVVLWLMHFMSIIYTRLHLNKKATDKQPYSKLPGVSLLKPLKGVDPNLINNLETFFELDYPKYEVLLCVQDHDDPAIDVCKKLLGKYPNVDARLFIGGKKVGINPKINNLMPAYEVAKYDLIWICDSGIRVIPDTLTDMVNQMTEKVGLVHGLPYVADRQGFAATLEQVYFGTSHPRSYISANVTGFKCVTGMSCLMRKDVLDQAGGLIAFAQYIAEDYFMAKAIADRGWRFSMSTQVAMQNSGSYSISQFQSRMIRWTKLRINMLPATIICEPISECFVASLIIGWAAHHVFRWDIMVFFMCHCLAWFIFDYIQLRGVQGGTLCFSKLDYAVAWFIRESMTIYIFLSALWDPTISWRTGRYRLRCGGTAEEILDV
Kind of data set: Inhibition of mouse GCS using C8-ceramide and UDP-glucose as substrate incubated for 1 hr by RapidFire mass spectrometry.

Data set [10] is described as follows: Kinetic solubility of the compound in JP2 fluid at pH 6.8 by precipitation method. In kind it is physicochemical. Particulars: read-out: Kinetic_solubility.
The nature of data set [11]: 1-Octanol/aqueous buffer partition coefficient, logD of the compound at pH 7.4 by chromatographic method. It is filed as physicochemical.
Data set [12] in a line: MRT in non-fasted ICR mouse at 5 mg/kg, po by LC-MS/MS analysis. Conditions: in vivo. In kind it is ADME, organism-based.

≈ marks a conversion by molar mass, not a printed value.

A word on the EC50: it is the concentration needed to bring the measured effect to its halfway point. One may read the inhibition as how much of the control response was suppressed. For orientation: fraction unbound means free concentration divided by total concentration. A high value points to weak binding. As usually defined, the IC50 is the midpoint of a concentration-inhibition curve. In general, chromatographic logD refers to lipophilicity estimated from chromatographic retention. High values mean higher lipophilicity, low ones lower lipophilicity. For orientation: MRT means a mean duration of stay, worked out from the concentration-time curve.

Ceramide glucosyltransferase (Homo sapiens, UniProt Q16739), sequence (Q16739 whole entry, looked up, change not shown): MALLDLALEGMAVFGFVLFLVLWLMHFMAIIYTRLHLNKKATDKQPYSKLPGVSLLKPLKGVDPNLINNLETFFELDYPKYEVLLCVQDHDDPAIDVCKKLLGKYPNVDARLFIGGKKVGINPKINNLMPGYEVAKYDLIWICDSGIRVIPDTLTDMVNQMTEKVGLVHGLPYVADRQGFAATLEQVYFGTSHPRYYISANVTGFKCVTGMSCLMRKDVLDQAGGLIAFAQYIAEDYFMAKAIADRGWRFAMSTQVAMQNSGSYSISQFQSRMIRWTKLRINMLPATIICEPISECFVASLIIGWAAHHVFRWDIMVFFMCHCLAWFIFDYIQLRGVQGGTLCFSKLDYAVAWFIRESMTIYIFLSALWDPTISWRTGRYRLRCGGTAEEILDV
Cav1.2, sequence (Q13936 whole entry): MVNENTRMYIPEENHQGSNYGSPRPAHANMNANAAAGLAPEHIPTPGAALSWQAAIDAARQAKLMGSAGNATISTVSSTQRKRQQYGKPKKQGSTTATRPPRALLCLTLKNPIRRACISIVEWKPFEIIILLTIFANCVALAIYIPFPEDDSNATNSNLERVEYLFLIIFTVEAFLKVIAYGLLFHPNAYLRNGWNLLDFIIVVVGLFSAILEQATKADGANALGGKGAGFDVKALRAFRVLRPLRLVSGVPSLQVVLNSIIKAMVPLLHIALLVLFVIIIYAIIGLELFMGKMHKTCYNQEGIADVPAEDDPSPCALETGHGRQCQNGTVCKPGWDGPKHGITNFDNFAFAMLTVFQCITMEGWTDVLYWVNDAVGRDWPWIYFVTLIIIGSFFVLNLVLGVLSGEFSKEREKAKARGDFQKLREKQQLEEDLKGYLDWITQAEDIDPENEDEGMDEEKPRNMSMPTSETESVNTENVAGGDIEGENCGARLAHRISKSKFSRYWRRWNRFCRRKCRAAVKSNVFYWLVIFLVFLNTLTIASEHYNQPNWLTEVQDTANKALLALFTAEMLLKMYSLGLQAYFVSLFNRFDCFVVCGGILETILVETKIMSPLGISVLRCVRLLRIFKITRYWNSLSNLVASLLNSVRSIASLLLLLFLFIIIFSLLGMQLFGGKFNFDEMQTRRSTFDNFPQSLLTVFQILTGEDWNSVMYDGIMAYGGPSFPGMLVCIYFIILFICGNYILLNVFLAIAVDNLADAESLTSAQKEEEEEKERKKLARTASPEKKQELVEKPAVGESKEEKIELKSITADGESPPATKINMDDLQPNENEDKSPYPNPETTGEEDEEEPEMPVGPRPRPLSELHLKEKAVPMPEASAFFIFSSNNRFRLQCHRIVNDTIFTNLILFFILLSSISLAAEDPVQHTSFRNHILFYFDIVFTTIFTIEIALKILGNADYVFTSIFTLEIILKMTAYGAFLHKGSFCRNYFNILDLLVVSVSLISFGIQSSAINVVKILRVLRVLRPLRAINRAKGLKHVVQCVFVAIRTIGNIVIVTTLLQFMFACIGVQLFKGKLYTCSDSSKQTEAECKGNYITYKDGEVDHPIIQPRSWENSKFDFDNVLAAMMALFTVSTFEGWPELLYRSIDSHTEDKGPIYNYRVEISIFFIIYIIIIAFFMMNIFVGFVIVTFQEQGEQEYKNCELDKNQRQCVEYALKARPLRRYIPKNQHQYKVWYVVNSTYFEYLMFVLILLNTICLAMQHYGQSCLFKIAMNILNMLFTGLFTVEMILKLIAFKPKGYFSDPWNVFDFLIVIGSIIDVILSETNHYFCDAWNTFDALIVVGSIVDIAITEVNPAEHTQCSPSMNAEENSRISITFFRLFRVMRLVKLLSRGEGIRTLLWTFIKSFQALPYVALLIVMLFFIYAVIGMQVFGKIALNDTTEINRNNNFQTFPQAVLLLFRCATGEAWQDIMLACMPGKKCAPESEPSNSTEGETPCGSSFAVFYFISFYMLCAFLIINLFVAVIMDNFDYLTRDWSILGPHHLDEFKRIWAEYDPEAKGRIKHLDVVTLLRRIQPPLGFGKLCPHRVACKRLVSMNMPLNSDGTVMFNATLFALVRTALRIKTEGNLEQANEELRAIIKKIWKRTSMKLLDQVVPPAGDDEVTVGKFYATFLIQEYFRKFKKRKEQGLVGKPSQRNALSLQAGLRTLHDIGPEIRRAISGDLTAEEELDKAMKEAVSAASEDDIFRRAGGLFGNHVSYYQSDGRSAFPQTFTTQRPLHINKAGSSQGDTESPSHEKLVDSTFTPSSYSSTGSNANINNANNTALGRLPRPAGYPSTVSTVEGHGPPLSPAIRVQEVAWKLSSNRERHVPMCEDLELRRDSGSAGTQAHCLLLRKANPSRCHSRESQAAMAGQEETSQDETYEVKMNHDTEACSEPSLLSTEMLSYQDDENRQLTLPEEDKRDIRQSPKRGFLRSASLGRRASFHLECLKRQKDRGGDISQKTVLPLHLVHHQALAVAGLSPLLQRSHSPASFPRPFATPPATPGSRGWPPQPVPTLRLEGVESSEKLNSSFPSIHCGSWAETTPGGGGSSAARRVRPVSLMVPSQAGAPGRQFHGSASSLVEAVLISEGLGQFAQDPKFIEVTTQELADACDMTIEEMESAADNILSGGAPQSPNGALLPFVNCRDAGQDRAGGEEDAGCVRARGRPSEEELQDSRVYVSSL

For the compound `CC(C)(O)c1ccc(NC(=O)c2ccnn(-c3ccccc3OCC(F)(F)F)c2=O)cc1`, the EC50 in [1] stood at 4.4 nM. Moreover, the Kp uu at 1 h in data set [2] turned out to be 0.26. The microsomal CLint at 1 µM in data set [3] came to 32 µL/min/mg. Further, the Activity entry in data set [4] and in data set [6] was “Non-Toxic” throughout. In addition, the inhibition entry with Mus musculus [5] and in the data set on Mus musculus [7] was “Dose-Dependent Effect” in each case. For the same compound, at CYP2C8, the inhibition at 10 min, 10 µM was determined as 34.2%. Also, the fraction unbound at 1 h in data set [8] is 0.039. For the same compound, on Cav1.2, the inhibition at 30 µM worked out at 7.3%. In data set [9], this compound gave an IC50 of 190 nM. Besides, the solubility kinetic in data set [10] was found to be 45 µg/mL (≈ 101 µM). Further, in data set [11], the chromatographic logD amounted to 2.42. The same compound gave an MRT in data set [12] of 1.91 h.

Values taken from ChEMBL document CHEMBL5046282, “Discovery of Brain-Penetrant Glucosylceramide Synthase Inhibitors with a Novel Pharmacophore” (J Med Chem, 2022).
